# In patent publication US12692241B2, “Substituted triazine compound” (Nico Therapeutics, Inc., priority 2021, dated 2026):
# Where a name gives a salt, the structure may show the parent alone.
# Test system: IL-1β production in THP-1 cells (LPS and ATP; NLRP3 inflammasome activation)
# Experiment: THP-1 IL-1β production inhibitory test
# Format: cell-based, human
# Conditions: Homo sapiens, THP-1, 2 h, PMA-differentiated THP-1 cells, LPS 50 ng/mL and ATP 5 mM, 2 hours, ELISA; read-out: IC50 (nM), IL-1β production
# Experimental: THP-1 IL-1β Production Inhibitory Test
# To THP-1 cells, 50 ng/mL PMA (phorbol myristate acetate, SIGMA, P1585) was added at 37° C. and then the cells were cultured for 2 days. […] The cells were cultured at 37° C. for 15 minutes. LPS (lipopolysaccharide, SIMGA, L2880) and ATP (adenosine triphosphate, SIGMA, A2383) were added such that the final concentrations of them became 50 ng/mL and 5 mM, respectively. The cells were cultured at 37° C. for 2 hours. The supernatant was collected and the concentration of IL-1β was measured by ELISA (DuoSet ELISA human IL-1β, R&D Systems, DY201). The concentration of IL-1β was plotted against the logarithm of the concentration of the test compound, and the IC50 value was calculated by sigmoidal Emax model nonlinear regression analysis.
row,Compound,IC50 [nM]
1,Cc1nc(Nc2cc[nH]n2)nnc1-c1ccc(C(F)(F)F)cc1O [Example 150],6.8
2,C[C@@H](O)CNc1nnc(-c2ccc(C(F)(F)F)cc2O)c(C(F)(F)F)n1 [Example 130],260
3,Cc1nc(Nc2cnn(CCO)c2)nnc1-c1ccc(C(F)(F)F)cc1O [Example 89],230
4,Cc1nc(N[C@@H]2CNC2=O)nnc1-c1ccc(C(F)(F)F)cc1O [Example 65],110
5,Cc1nc(N[C@H]2CCN(C)C2=O)nnc1-c1ccc(C(F)(F)F)cc1O [Example 74],620
6,Cc1nc(NC[C@H](C)CO)nnc1-c1ccc(C(F)(F)F)cc1O [Example 2],32
7,Cc1nc(NC2(CO)COC2)nnc1-c1ccc(C(F)(F)F)cc1O [Example 29],84
8,"CC(=O)N1CCC[C@H]1CNc1nnc(-c2ccc(C(F)(F)F)cc2O)c(C)n1 [Example 151, 1-((2S)-2-[({6-[2-hydroxy-4-(trifluoromethyl)phenyl]-5-methyl-1,2,4-triazin-3-yl}amino)methyl]pyrrolidin-1-yl)ethan-1-one]",35
9,Cc1nc(NCCCO)nnc1-c1ccc(C(F)(F)F)cc1O [Example 3],69
10,Cc1nc(NCC(C)(C)CO)nnc1-c1ccc(C(F)(F)F)cc1O [Example 9],59
11,Cc1nc(N[C@H]2CNC2=O)nnc1-c1ccc(C(F)(F)F)cc1O [Example 62],28
12,CC(C)c1nc(NC[C@@H](C)O)nnc1-c1ccc(C(F)(F)F)cc1O [Example 129],55
13,"Cc1nc(N[C@@H]2CCN(CCO)C2)nnc1-c1ccc(C(F)(F)F)cc1O [Example 161, 2-(3-{[(3R)-1-(2-hydroxyethyl)pyrrolidin-3-yl]amino}-5-methyl-1,2,4-triazin-6-yl)-5-(trifluoromethyl)phenol]",70
14,CC[C@@H](O)CNc1nnc(-c2ccc(C(F)(F)F)cc2O)c(C)n1 [Example 14],62
15,CC(=O)N1CCOC[C@@H]1CNc1nnc(-c2ccc(C(F)(F)F)cc2O)c(C)n1 [Example 158],850
16,CC(=O)NC[C@H]1C[C@@H](Nc2nnc(-c3ccc(C(F)(F)F)cc3O)c(C)n2)C1 [Example 105],36
17,CC(=O)N1CCC[C@@H](CNc2nnc(-c3ccc(C(F)(F)F)cc3O)c(C)n2)C1 [Example 153],7.8
18,Cc1nc(NC(C)(C)CO)nnc1-c1ccc(C(F)(F)F)cc1O [Example 33],150
19,Cc1nc(NC2(CCO)CC2)nnc1-c1ccc(C(F)(F)F)cc1O [Example 34],49
20,O=C1NCC[C@@H]1Nc1nnc(-c2ccc(C(F)(F)F)cc2O)c(C2CC2)n1 [Example 127],10
21,Cc1nc(NC[C@H]2C[C@H](N)C2)nnc1-c1ccc(C(F)(F)F)cc1O [Example 143],220
22,Cc1nc(NC[C@@H](C)O)nnc1-c1ccc(C(F)(F)F)cc1O [Example 4],35
23,Cc1nc(NCC2(CO)CCC2)nnc1-c1ccc(C(F)(F)F)cc1O [Example 15],100
24,O=C1NCC[C@@H]1Nc1nnc(-c2ccc(OC(F)(F)F)cc2O)c(C2CC2)n1 [Example 126],20
25,Cc1nc(NC[C@H]2COCCN2)nnc1-c1ccc(C(F)(F)F)cc1O [Example 142],340
26,Cc1n[nH]cc1Nc1nnc(-c2ccc(C(F)(F)F)cc2O)c(C)n1 [Example 140],160
27,Cc1nc(NCc2cc[nH]n2)nnc1-c1ccc(C(F)(F)F)cc1O [Example 94],70

# The remaining lines, values ahead:
row,IC50 [nM],Compound
1,32,Cc1nc(N[C@@H]2CCC[C@H](O)C2)nnc1-c1ccc(C2CC2)cc1O [Example 83]
2,10,Cc1nc(N[C@H]2CCNC2=O)nnc1-c1ccc(Cl)cc1O [Example 70]
3,7.3,Cc1nc(N[C@@H]2CCCC[C@@]2(C)O)nnc1-c1ccc(Cl)cc1O [Example 54]
4,62,Cc1nc(N[C@H]2CC[C@H](O)CC2)nnc1-c1ccc(C(F)(F)F)cc1O [Example 26]
5,23,Oc1cc(OC(F)(F)F)ccc1-c1nnc(N[C@@H]2CCCC[C@H]2O)nc1C1CC1 [Example 116]
6,30,Cc1nc(N[C@@H]2CC[C@@H](C#N)C2)nnc1-c1ccc(C(F)(F)F)cc1O [Example 103]
7,27,Cc1nc(N[C@@H]2CCOC[C@H]2O)nnc1-c1ccc(C2CC2)cc1O [Example 78]
8,19,Cc1nc(N[C@@H]2CCNC2=O)nnc1-c1ccc(C(F)(F)F)cc1O [Example 43]
9,47,Oc1cc(C(F)(F)F)ccc1-c1nnc(N[C@@H]2CCCC[C@H]2O)nc1C(F)F [Example 118]
10,24,Cc1nc(N[C@@H]2CCC[C@H](O)C2)nnc1-c1ccc(C(F)F)cc1O [Example 175]
11,15,Cc1nc(N[C@@H]2CCOC[C@H]2O)nnc1-c1ccc(C(F)(F)F)cc1O [Example 11]
12,36,COc1ccc(-c2nnc(N[C@@H]3CCOC[C@H]3O)nc2C)c(O)c1 [Example 61]
13,42,Cc1ccc(-c2nnc(N[C@H]3C[C@@](C)(O)C3)nc2C2CC2)c(O)c1 [Example 119]
14,290,Cc1nc(N[C@@H]2COCC[C@H]2O)nnc1-c1ccc(C(F)(F)F)cc1O [Example 21]
15,33,Cc1ccc(-c2nnc(N[C@H]3C[C@@](C)(O)C3)nc2C)c(O)c1 [Example 51]
16,6.9,Cc1nc(NC2CC(C)(O)C2)nnc1-c1ccc(C(F)(F)F)cc1O (stereo not drawn) [Example 8]
17,13,Cc1nc(NC2CC3(CC(O)C3)C2)nnc1-c1ccc(C(F)(F)F)cc1O (stereo not drawn) [Example 22]
18,19,Cc1nc(N[C@@H]2C[C@H]3C[C@@H]2[C@@H](O)C3)nnc1-c1ccc(C(F)(F)F)cc1O [Example 39]

row,IC50 [nM],Compound
1,88,Cc1nc(NC[C@@H]2CCCO2)nnc1-c1ccc(C(F)(F)F)cc1O [Example 18]
2,1.3,"Cc1nc(N[C@@H]2CCCN(C)C2)nnc1-c1ccc(C(F)(F)F)cc1O [Example 187, 2-(5-methyl-3-{[(3R)-1-methylpiperidin-3-yl]amino}-1,2,4-triazin-6-yl)-5-(trifluoromethyl)phenol dihydrochloride]"
3,77,Cc1nc(N[C@@H]2CCCC[C@H]2O)nnc1-c1ccc(C#N)cc1O [Example 25]
4,30,Cc1nc(N[C@@H]2CCC[C@H](O)C2)nnc1-c1ccc(Cl)cc1O [Example 82]
5,30,Cc1nc(N[C@@H]2CCCCNC2=O)nnc1-c1ccc(C(F)(F)F)cc1O [Example 46]
6,7.9,CC(C)c1nc(N[C@@H]2CCCC[C@H]2O)nnc1-c1ccc(C(F)(F)F)cc1O [Example 128]
7,22,"CC(=O)N[C@@H]1CCCC[C@H]1Nc1nnc(-c2ccc(C(F)(F)F)cc2O)c(C)n1 [Example 152, N-[(1R,2R)-2-({6-[2-hydroxy-4-(trifluoromethyl)phenyl]-5-methyl-1,2,4-triazin-3-yl}amino)cyclohexyl]acetamide]"
8,5.6,Cc1nc(N[C@@H]2CCCNC2)nnc1-c1ccc(C(F)(F)F)cc1O [Example 138]
9,67,"Cc1nc(N[C@@H]2CC[C@H](C(=O)O)C2)nnc1-c1ccc(C(F)(F)F)cc1O [Example 182, (1S,3R)-3-({6-[2-hydroxy-4-(trifluoromethyl)phenyl]-5-methyl-1,2,4-triazin-3-yl}amino)cyclopentane-1-carboxylic acid]"
10,310,Cc1nc(N[C@H]2CCCC[C@@H]2O)nnc1-c1ccc(C(F)(F)F)cc1O [Example 41]
11,28,Cc1nc(N[C@H]2CCC(F)(F)C2)nnc1-c1ccc(C(F)(F)F)cc1O [Example 7]
12,21,Cc1nc(N[C@@H]2CCC[C@H]2O)nnc1-c1ccc(C(F)(F)F)cc1O [Example 5]
13,11,Cc1ccc(-c2nnc(N[C@@H]3CCCC[C@@]3(C)O)nc2C)c(O)c1 [Example 55]
14,18,Oc1cc(OC(F)(F)F)ccc1-c1nnc(N[C@@H]2CCOC[C@H]2O)nc1C1CC1 [Example 112]
15,7.6,"Cc1nc(N[C@@H]2CCCC[C@H]2O)nnc1-c1ccc(C(F)(F)F)cc1O [Example 1, 2-(3-{[(1R,2R)-2-hydroxycyclohexyl]amino}-5-methyl-1,2,4-triazin-6-yl)-5-(trifluoromethyl)phenol]"
16,33,Cc1ccc(-c2nnc(N[C@@H]3CCOC[C@H]3O)nc2C2CC2)c(O)c1 [Example 114]
17,12,Cc1nc(N[C@@H]2CCCC[C@H]2N)nnc1-c1ccc(Cl)cc1O [Example 146]
18,43,Cc1nc(N[C@@H]2CCC[C@H](O)C2)nnc1-c1cc(F)c(C(F)(F)F)cc1O [Example 176]

# Same assay, conditions: Homo sapiens, THP-1, 2 h, read-out: IC50 (nM), IL-1β production
row,Compound,IC50 [nM]
1,"Cc1nc(N[C@@H]2CCCC[C@H]2O)nnc1-c1ccc(OC(F)F)cc1O [Example 186, 5-(difluoromethoxy)-2-(3-{[(1R,2R)-2-hydroxycyclohexyl]amino}-5-methyl-1,2,4-triazin-6-yl)phenol monohydrochloride]",11
2,"Cc1nc(N[C@@H]2CCC[C@H](O)C2)nnc1-c1ccc(C(F)(F)F)cc1O [Example 185, 2-(3-{[(1R,3S)-3-hydroxycyclohexyl]amino}-5-methyl-1,2,4-triazin-6-yl)-5-(trifluoromethyl)phenol monohydrochloride]",5.2

# Same assay, conditions: PMA-differentiated THP-1 cells, LPS 50 ng/mL and ATP 5 mM, 2 hours, ELISA; dihydrochloride; read-out: IC50 (nM), IL-1β production
row,IC50 [nM],Compound
1,21,"Cc1nc(N[C@@H]2CCCC[C@H]2N)nnc1-c1ccc(C(F)(F)F)cc1O [Example 188, 2-(3-{[(1R,2R)-2-aminocyclohexyl]amino}-5-methyl-1,2,4-triazin-6-yl)-5-(trifluoromethyl)phenol dihydrochloride]"
